Where two headings read alike, the source gives them in different places.
Key:
Assay in all cases: Inhibition assay, microfluidic LabChip (Nanosyn)
Type in all cases: biochemical
CDK7 CyclinH = CDK7 CyclinH (Homo sapiens, UniProt P50613);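 note: values are IC50 from a concentration-response series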
Protocol: (§1) The reaction was terminated by the addition of EDTA. The plates were analyzed using a Caliper LabChip 3000.
(§2) Additional inhibition assays were performed as described above.

CDK9-CYCLINT1 = target: T1, CDK9-CYCLINT1 (Homo sapiens, UniProt P50750);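 note: values are IC50 from a concentration-response series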
T1 construct: purchased Carna
T1 sequence (P50750 whole entry): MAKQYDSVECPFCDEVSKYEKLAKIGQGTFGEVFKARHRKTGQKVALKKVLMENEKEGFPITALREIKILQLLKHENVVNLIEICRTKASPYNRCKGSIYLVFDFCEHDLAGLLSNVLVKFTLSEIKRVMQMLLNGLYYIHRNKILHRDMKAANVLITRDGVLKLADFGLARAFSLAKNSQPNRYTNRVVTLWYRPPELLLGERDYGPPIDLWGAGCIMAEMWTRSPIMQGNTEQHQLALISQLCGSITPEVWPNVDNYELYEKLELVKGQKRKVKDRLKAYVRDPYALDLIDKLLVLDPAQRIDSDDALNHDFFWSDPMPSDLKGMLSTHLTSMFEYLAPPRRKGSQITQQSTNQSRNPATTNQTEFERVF
T1 sequence (O60563 whole entry partner): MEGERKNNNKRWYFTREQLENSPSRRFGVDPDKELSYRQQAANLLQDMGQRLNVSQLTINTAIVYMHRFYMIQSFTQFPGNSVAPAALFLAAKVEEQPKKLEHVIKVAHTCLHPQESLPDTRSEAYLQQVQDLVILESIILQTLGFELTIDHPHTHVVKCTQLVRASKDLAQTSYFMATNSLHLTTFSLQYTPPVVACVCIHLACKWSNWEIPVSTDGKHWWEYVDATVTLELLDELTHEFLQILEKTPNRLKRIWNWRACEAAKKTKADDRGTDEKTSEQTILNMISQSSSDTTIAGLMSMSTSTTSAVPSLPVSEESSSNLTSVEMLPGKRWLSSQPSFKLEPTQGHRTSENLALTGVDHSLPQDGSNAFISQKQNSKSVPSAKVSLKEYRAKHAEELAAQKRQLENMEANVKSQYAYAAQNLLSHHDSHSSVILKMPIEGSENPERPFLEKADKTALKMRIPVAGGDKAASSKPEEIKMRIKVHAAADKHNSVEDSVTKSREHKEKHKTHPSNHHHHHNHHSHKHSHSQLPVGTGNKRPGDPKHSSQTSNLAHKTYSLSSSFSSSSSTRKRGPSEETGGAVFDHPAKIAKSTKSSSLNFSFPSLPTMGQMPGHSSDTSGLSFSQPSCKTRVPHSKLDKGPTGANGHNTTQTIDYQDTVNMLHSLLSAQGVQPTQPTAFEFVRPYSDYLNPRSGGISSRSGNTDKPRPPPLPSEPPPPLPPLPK
Protocol: as §1, §2

CDK2-CYCLINA = target: T2, CDK2-CYCLINA (Homo sapiens, UniProt P24941);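 note: values are IC50 from a concentration-response series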
T2 construct: purchased Millipore
Protocol: as §1, §2

CDK1/B = CDK1/B (Homo sapiens, UniProt P06493); settings: Table 3a
CDK1/B, sequence (P06493 whole entry): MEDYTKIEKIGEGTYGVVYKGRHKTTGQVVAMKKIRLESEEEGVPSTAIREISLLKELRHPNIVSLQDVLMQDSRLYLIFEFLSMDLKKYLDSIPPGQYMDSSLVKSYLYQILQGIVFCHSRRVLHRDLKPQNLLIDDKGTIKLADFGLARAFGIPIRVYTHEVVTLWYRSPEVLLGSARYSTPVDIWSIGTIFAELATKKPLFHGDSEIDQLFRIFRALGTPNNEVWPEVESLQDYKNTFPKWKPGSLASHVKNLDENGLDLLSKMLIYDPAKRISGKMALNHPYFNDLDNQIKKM
CDK1/B, sequence (P14635 whole entry partner): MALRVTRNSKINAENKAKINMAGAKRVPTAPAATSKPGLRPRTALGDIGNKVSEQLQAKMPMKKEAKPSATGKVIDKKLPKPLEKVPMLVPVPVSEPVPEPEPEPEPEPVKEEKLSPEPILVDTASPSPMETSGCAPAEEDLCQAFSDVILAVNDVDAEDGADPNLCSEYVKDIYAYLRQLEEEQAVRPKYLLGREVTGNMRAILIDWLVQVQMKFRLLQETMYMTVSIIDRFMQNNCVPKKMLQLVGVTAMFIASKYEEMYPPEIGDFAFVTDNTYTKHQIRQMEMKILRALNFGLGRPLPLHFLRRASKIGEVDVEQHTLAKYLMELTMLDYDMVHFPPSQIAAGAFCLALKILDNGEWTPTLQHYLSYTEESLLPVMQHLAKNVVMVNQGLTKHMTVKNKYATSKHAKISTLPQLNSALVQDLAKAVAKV
Protocol: as §1, §2

CDK4-CYCLIND1 = target: T3, CDK4-CYCLIND1 (Homo sapiens, UniProt P11802); settings: read-out: CDK4 CyclinD1 IC50
T3 construct: purchased Invitrogen
T3 sequence (P11802 whole entry): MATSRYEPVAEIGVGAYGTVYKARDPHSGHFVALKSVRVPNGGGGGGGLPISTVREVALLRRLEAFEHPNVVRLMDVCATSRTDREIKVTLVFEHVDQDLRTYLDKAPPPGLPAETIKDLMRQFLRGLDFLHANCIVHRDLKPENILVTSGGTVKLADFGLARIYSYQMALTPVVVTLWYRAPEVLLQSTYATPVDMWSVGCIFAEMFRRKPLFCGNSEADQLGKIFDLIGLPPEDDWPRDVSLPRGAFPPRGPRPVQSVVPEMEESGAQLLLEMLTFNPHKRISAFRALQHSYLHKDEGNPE
T3 sequence (P24385 whole entry partner): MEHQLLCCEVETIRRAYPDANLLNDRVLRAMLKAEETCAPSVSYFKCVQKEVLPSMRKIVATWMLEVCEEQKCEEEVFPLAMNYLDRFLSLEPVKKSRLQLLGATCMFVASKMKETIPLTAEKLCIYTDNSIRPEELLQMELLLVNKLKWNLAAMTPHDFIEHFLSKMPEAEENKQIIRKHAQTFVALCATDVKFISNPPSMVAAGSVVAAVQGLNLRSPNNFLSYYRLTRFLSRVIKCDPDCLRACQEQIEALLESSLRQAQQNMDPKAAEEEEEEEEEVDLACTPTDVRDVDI
Protocol: as §1, §2

CDK7 CyclinH, sequence (P50613 whole entry): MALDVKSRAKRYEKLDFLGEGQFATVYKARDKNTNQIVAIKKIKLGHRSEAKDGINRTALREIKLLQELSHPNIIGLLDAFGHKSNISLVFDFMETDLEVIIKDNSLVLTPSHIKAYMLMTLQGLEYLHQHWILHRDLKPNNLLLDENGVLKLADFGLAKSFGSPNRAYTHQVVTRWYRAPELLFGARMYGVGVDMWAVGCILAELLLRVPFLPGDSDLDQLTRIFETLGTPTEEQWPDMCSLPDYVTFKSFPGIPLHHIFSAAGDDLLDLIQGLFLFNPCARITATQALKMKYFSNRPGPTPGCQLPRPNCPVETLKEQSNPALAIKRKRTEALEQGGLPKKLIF
CDK7 CyclinH, sequence (P51946 whole entry partner): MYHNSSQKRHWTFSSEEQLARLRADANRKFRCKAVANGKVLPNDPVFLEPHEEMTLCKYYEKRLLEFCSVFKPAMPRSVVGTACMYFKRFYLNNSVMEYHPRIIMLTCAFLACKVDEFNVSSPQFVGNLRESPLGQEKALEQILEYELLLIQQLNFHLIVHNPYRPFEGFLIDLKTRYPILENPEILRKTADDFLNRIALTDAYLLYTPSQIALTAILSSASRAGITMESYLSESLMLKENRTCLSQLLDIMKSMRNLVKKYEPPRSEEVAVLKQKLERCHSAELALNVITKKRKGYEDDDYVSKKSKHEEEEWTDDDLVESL
CDK7 CyclinH, sequence (P51948 whole entry partner): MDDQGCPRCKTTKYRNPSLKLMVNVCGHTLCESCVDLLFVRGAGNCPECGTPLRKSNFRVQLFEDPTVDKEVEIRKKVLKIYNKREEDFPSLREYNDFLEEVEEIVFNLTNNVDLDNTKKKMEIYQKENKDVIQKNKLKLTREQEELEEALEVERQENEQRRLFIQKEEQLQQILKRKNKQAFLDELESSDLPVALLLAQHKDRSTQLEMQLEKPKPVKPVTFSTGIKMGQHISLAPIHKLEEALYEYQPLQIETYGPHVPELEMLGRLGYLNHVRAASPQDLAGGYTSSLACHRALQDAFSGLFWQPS

Row | SMILES | IC50 (CDK7 CyclinH; Table 3a) | IC50 (CDK7 CyclinH; Table 3b) | IC50 (CDK9-CYCLINT1; Table 3a) | IC50 (CDK2-CYCLINA; Table 3a) | IC50 (CDK2-CYCLINA; Table 3b) | IC50 (CDK1/B) | IC50 (CDK4-CYCLIND1; Table 3a) | IC50 (CDK4-CYCLIND1; Table 3b) | IC50 (CDK9-CYCLINT1; Table 3b)
1 | CC1CN(c2ccc(Nc3ncc4cc(C(=O)N(C)C)n(C56CC(C5)C6)c4n3)cc2)CC(C)N1 (stereo not shown) [Compound A90, 7-(bicyclo[1.1.1]pentan-1-yl)-2-((4-(3,5-dimethylpiperazin-1-yl)phenyl)amino)-N,N-dimethyl-7H-pyrrolo[2,3-d]pyrimidine-6-carboxamide] | 5610 nM | 5610 nM | 9.26 nM | 913 nM | 913 nM | 1150 nM | 11.1 nM | 11.1 nM | –
2 | CN(C)C(=O)c1cc2cnc(Nc3ccc(N4CCN(CCO)CC4)c(F)c3)nc2n1C12CC(C1)C2 [Compound A74, 7-(bicyclo[1.1.1]pentan-1-yl)-2-((3-fluoro-4-(4-(2-hydroxyethyl)piperazin-1-yl)phenyl)amino)-N,N-dimethyl-7H-pyrrolo[2,3-d]pyrimidine-6-carboxamide] | 938 nM | 938 nM | < 3.2 nM | 245 nM | 245 nM | 250 nM | < 3.2 nM | < 3.2 nM | < 3.2 nM

The remaining lines, values ahead:

Row | IC50 (CDK7 CyclinH; Table 3a) | IC50 (CDK7 CyclinH; Table 3b) | IC50 (CDK9-CYCLINT1; Table 3a) | IC50 (CDK2-CYCLINA; Table 3a) | IC50 (CDK2-CYCLINA; Table 3b) | IC50 (CDK1/B) | IC50 (CDK4-CYCLIND1; Table 3a) | IC50 (CDK4-CYCLIND1; Table 3b) | IC50 (CDK9-CYCLINT1; Table 3b) | SMILES
3 | > 10000 nM | > 10000 nM | 5.1 nM | 1470 nM | 1470 nM | 1830 nM | 14 nM | 14 nM | – | CN1CC2(C1)CN(c1ccc(Nc3ncc4cc(C(=O)N(C)C)n(C56CC(C5)C6)c4n3)cc1)C2 [Compound A69, 7-(bicyclo[1.1.1]pentan-1-yl)-N,N-dimethyl-2-((4-(6-methyl-2,6-diazaspiro[3.3]heptan-2-yl)phenyl)amino)-7H-pyrrolo[2,3-d]pyrimidine-6-carboxamide]
4 | 3420 nM | 3420 nM | < 3.2 nM | 800 nM | 800 nM | 955 nM | 7.9 nM | 7.9 nM | < 3.2 nM | CN(C)CCOc1ccc(Nc2ncc3cc(C(=O)N(C)C)n(C45CC(C4)C5)c3n2)cc1 [Compound A60, 7-(bicyclo[1.1.1]pentan-1-yl)-2-((4-(2-(dimethylamino)ethoxy)phenyl)amino)-N,N-dimethyl-7H-pyrrolo[2,3-d]pyrimidine-6-carboxamide]
5 | > 10000 nM | > 10000 nM | < 3.2 nM | 30.2 nM | 30.2 nM | 97.1 nM | 36 nM | 36 nM | < 3.2 nM | CN(C)C(=O)c1cc2cnc(Nc3ccc(S(C)(=O)=O)cc3)nc2n1C12CC(C1)C2 [Compound A79, 7-(bicyclo[1.1.1]pentan-1-yl)-N,N-dimethyl-2-((4-(methylsulfonyl)phenyl)amino)-7H-pyrrolo[2,3-d]pyrimidine-6-carboxamide]

Source: patent US20220056037A1 (SPV THERAPEUTICS INC., priority 2018, published 2022)
